The nature of this data set: in vitro. The settings on record: rat, liver microsomes. Background: Liver microsomes are vesicles of endoplasmic reticulum, rich in cytochrome P450 enzymes.

For the compound `COc1cccc(Cn2ccc3c(N4CCC(F)(F)CC4)nc4ccccc4c32)c1`, the CLint scaled (in general, the rate of metabolic loss divided by the concentration) at 10 µM is 43 mL/min/kg.

The record behind these values is ChEMBL document CHEMBL5154849, “Overcoming undesirable hERG affinity by incorporating fluorine atoms: A case of MAO-B inhibitors derived from 1 H-pyrrolo-[3,2-c]quinolines” (Eur J Med Chem, 2022).
